# Data: the supplement of paper PMC11451515
# Tested on: NOMO1
# Assay: cell viability relative to DMSO control; higher = less cytotoxic
# Settings: 48 h
# Procedure, shortened: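 NOMO1 or SEM (500 cells/well) or P12-Ichikawa (1000 cells/well) leukemia cells were adapted for at least four passages in each medium. They were seeded in 1536-well plates (5 μl) and pin-dosed with library compounds in DMSO over an 11-point threefold series, 47 μM to 0.79 nM. CellTiter-Glo One luminescence was read after 48 h at 37°C. Viability is the per-plate percentage relative to DMSO wells, with cell-free wells as background.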
# [1] = HPLM + 10% dialyzed FBS, 0.000781 µM
# [2] = HPLM + 10% dialyzed FBS, 0.00234 µM
# [3] = HPLM + 10% dialyzed FBS, 0.00702 µM
# [4] = HPLM + 10% dialyzed FBS, 0.0211 µM
# [5] = HPLM + 10% dialyzed FBS, 0.0632 µM
# [6] = HPLM + 10% dialyzed FBS, 0.19 µM
# [7] = HPLM + 10% dialyzed FBS, 0.569 µM
# [8] = HPLM + 10% dialyzed FBS, 1.71 µM
# [9] = HPLM + 10% dialyzed FBS, 5.12 µM
# [10] = HPLM + 10% dialyzed FBS, 15.4 µM
# [11] = HPLM + 10% dialyzed FBS, 46.1 µM
# [12] = RPMI 5 mM glucose + 10% FBS, 0.000781 µM
# [13] = RPMI 5 mM glucose + 10% FBS, 0.00234 µM
# [14] = RPMI 5 mM glucose + 10% FBS, 0.00702 µM
# [15] = RPMI 5 mM glucose + 10% FBS, 0.0211 µM
# [16] = RPMI 5 mM glucose + 10% FBS, 0.0632 µM
# [17] = RPMI 5 mM glucose + 10% FBS, 0.19 µM
# [18] = RPMI 5 mM glucose + 10% FBS, 0.569 µM
# [19] = RPMI 5 mM glucose + 10% FBS, 1.71 µM
# [20] = RPMI 5 mM glucose + 10% FBS, 5.12 µM
# [21] = RPMI 5 mM glucose + 10% FBS, 15.4 µM
# [22] = RPMI 5 mM glucose + 10% FBS, 46.1 µM
# [23] = RPMI 5 mM glucose + 10% dialyzed FBS, 0.000781 µM
# [24] = RPMI 5 mM glucose + 10% dialyzed FBS, 0.00234 µM
# [25] = RPMI 5 mM glucose + 10% dialyzed FBS, 0.00702 µM
# [26] = RPMI 5 mM glucose + 10% dialyzed FBS, 0.0211 µM
# [27] = RPMI 5 mM glucose + 10% dialyzed FBS, 0.0632 µM
# [28] = RPMI 5 mM glucose + 10% dialyzed FBS, 0.19 µM
# [29] = RPMI 5 mM glucose + 10% dialyzed FBS, 0.569 µM
# [30] = RPMI 5 mM glucose + 10% dialyzed FBS, 1.71 µM
# [31] = RPMI 5 mM glucose + 10% dialyzed FBS, 5.12 µM
# [32] = RPMI 5 mM glucose + 10% dialyzed FBS, 15.4 µM
# [33] = RPMI 5 mM glucose + 10% dialyzed FBS, 46.1 µM
SMILES,cell viability [1] [%],cell viability [2] [%],cell viability [3] [%],cell viability [4] [%],cell viability [5] [%],cell viability [6] [%],cell viability [7] [%],cell viability [8] [%],cell viability [9] [%],cell viability [10] [%],cell viability [11] [%],cell viability [12] [%],cell viability [13] [%],cell viability [14] [%],cell viability [15] [%],cell viability [16] [%],cell viability [17] [%],cell viability [18] [%],cell viability [19] [%],cell viability [20] [%],cell viability [21] [%],cell viability [22] [%],cell viability [23] [%],cell viability [24] [%],cell viability [25] [%],cell viability [26] [%],cell viability [27] [%],cell viability [28] [%],cell viability [29] [%],cell viability [30] [%],cell viability [31] [%],cell viability [32] [%],cell viability [33] [%]
O.O.CCN1CCN(C(=O)N[C@H](C(=O)N[C@H]2[C@@H]3SC\C(=C(/N3C2=O)C(O)=O)CSC4=NN=N[N]4C)C5=CC=C(O)C=C5)C(=O)C1=O,77.3,86.9,106,29.4,106,98.8,110,104,101,89.8,115,81.4,93.8,88.5,19.5,95.2,100,111,109,101,111,113,77.5,92.9,93.5,32,100,96.1,100,101,92.4,102,107
NC(=O)c1ncn([C@@H]2O[C@H](CO)[C@@H](O)[C@H]2O)c1O,,,,,,,,,,,,122,125,114,118,114,136,129,127,112,112,117,122,127,115,113,106,120,118,103,115,118,112
OC(CN1CCN(c2cccc(Cl)c2)CC1)C(c1ccccc1)c1ccccc1 (stereo unspecified),,,,,,,,,,,,116,119,133,127,132,126,108,22.7,16.6,14.1,7.62,124,118,124,126,138,125,126,31,27.8,24,9.63
O=C(/C=C/c1ccc(O)cc1)c1ccc(O)cc1O,138,116,117,110,104,126,128,97.2,106,82.4,46.8,112,105,101,109,113,110,119,98.8,103,96.1,86.6,120,103,109,106,107,110,110,88.4,102,109,70.2
C[C@](N)(Cc1ccc(O)c(O)c1)C(=O)O,84.9,84.3,96.8,74.9,89.4,82,76.7,69.9,92.9,76.8,72.6,86.4,80.1,93.9,82,81.7,81,76.5,78.4,82.9,76.9,74.1,88.3,88.5,85,87.1,92.2,85.7,78.1,87.2,82.3,79,77.9
CCCC1OC2C[C@H]3[C@@H]4CCC5=CC(=O)C=C[C@]5(C)[C@H]4C(O)C[C@]3(C)[C@]2(C(=O)CO)O1 (stereo partly specified),,,,,,,,,,,,106,105,107,111,107,104,106,103,100,97.5,46.7,99.5,119,106,114,110,102,105,115,97.1,95.3,63.7
COC1=CC=C2CN(C)CC[C@@]34\C=C/[C@H](O)C[C@@H]3OC1=C24,,,,,,,,,,,,128,124,120,112,124,130,118,123,126,108,104,126,121,118,119,118,129,120,115,110,108,113
CCOC(=O)/C=C/[C@H](C[C@@H]1CCNC1=O)NC(=O)[C@@H](CC(=O)[C@@H](NC(=O)c1cc(C)on1)C(C)C)Cc1ccc(F)cc1,,,,,,,,,,,,,,,,,,,,,,,119,124,143,118,132,118,130,131,144,155,125
CCN(c1ccccc1)c1cc(NC)[n+](C)c(C)n1,121,123,109,120,130,115,116,123,107,109,111,115,104,106,110,101,104,123,122,112,95.5,103,106,111,112,124,122,116,126,113,103,108,108
